Entries after “also recorded” stand apart in the source; their conditions may differ.

The assay relates to TNFα protein expression. The assay is described as follows: Skin resident immune cell assay (sRICA), LPS-stimulated human skin, TNFα protein. In kind it is cell-based. The conditions noted are these: positive control, applied topically. How it is done: The anti-inflammatory activity of the IRAK4/TrkA inhibitors was determined in a skin resident immune cell assay (sRICA). In this model, human surgical skin waste was cultured in a transwell system, with the dermis in contact with cell culture media and the stratum corneum exposed to air. To perform the assay, each human skin sample was defatted and dermatomed to 750 μm. Next, 8 mm punch biopsies were obtained and placed in a membrane transwell. The biopsies were prepared with a barrier ring to contain the formulation and prevent leakage of the formulation. The transwells were inserted into culture wells with complete media, and a cocktail of cytokines and antibodies and/or inflammatory stimuli were added to promote skin resident immune cell polarization and/or elicitation of a specific inflammatory response. The transwells were treated with LPS as a positive control, a vehicle as a negative control, and various dual IRAK/TrkA inhibitors. TNFα protein expression was measured and the mean TNFα protein level in the LPS treated samples was set to 100%.
The Compounds were formulated at 80% saturated solubility. […]
Except for the 0.5% Compound 1/NAG6 formulations, all Round 2 formulations were manufactured at 80% saturation. […] Conditioned cell media was collected and assessed for expression of inflammatory proteins after 48 hours of exposure to LPS stimulation.

In the case of `CCC(=O)O[C@]1(C(=O)CCl)[C@@H](C)C[C@H]2[C@@H]3CCC4=CC(=O)C=C[C@]4(C)[C@@]3(F)[C@@H](O)C[C@@]21C` [Clobetasol], the “Effect on LPS-induced TNFα production / inflammation” value is recorded as “significantly reduced inflammation back to baseline levels; also recorded: completely inhibited TNFα induction”.

The values are drawn from US20230390265A1, “IRAK4 Inhibitors and Topical Uses Thereof” (Dermira, Inc., priority 2020, published 2023).
